# Source: paper PMC11007962, “First-in-human study of GFH018, a small molecule inhibitor of transforming growth factor-β receptor I inhibitor, in patients with advanced solid tumors” (BMC Cancer, 2024)
# Tested on: patients with advanced solid tumors
# Conditions: 85 mg BID 7d-on/7d-off (N = 6)
# Experimental: The study consisted of a dose-escalation part followed by an expansion part. In the dose escalation part, a 3-day pharmacokinetic (PK) lead-in period was conducted for a single dose in the first treatment cycle. Patients received GFH018 once on cycle 1 day 1 (C1D1) and underwent serial PK testing over the first 3 days. On C1D4, patients were administered the corresponding dose of GFH018 BID 14 days on/14 days off. The first cycle was defined as 31 days, including 3-day PK leading-in period with GFH018 single dosing and then 14d-on/14d-off dosing schedule. The subsequent cycles were 28 days. The starting dose of GFH018 was 5 mg, with eight planned dose levels up to 85 mg (5, 10, 20, 30, 40, 50, 65, and 85 mg). A modified 3+3 design was used to determine the maximum tolerance dose (MTD) and RDE, guided by safety/tolerability and PK data. Dose-limiting toxicities (DLTs) were evaluated during the first cycle at each dose level. The safety of 85 mg BID, 7 d-on/7 d-off, was explored after confirming the safety of 14 d-on/14 d-off. The DLTs were defined as hematological toxicities, including G4 neutropenia lasting for more than 5 days, G3 febrile neutropenia, G4 anemia, G4 thrombocytopenia, or G3 thrombocytopenia accompanied by bleeding, and ≥ G3 nonhematological toxicity (except for diarrhea, nausea, vomiting, and rash recovering ≤ G2 after supportive treatment within 3 days). The DLTs for cardiac toxicities included ≥ G2 cardiac valve abnormalities, ≥ G2 left ventricular ejection fraction (LVEF) decrease, any cardiovascular impairment shown in imaging, and abnormal highly sensitive troponin (hs-Tn) increased to ≥ twice the baseline in two consecutive tests with an interval ≥ 3 days. In the expansion part, patients were orally administered GFH018 RDE twice daily to further evaluate the safety of RDE and other dose regimens. […] The treatment cycle lasted 28 days.
# All enrolled patients were monitored regularly after GFH018 administration. Safety assessments included adverse events (AEs), serious AEs (SAEs), laboratory assessments, vital signs, physical examinations, electrocardiography and echocardiography. AEs were graded according to the NCI Common Terminology Criteria for Adverse Events (NCI-CTCAE) v5.0. All AEs were followed up until they were stable or had recovered to baseline. Adverse events of special interest (AESIs) were predefined as echocardiographic abnormalities such as aggravated stenosis or regurgitation of the heart valves, clinically significant decreases in LVEF, brain natriuretic peptide (BNP) or N-terminal pro-brain natriuretic peptide (NT-proBNP) increases, and hs-Tn increases judged by investigators.
# For the safety and efficacy analyses, data from patients who received GFH018 at the same dose in the dose-escalation and expansion cohorts were pooled. The demographic and baseline characteristics were summarized using descriptive methods. Safety and efficacy data were summarized for all patients who received at least one dose of GFH018. The ORR and DCR were summarized by cohort and overall. When the sample size of the analyzed group was ten or more, the Kaplan–Meier method was used to estimate the median PFS and TTP. In this study, treatment-emergent AEs (TEAEs) were defined as AEs that occurred on or after the first dosing date of GFH018 and no later than 30 days after the last dose of GFH018. The incidence and severity of AEs were descriptively summarized according to dose level. The PK parameters of GFH018 were calculated using noncompartmental analysis methods. All plasma PK data were summarized by cohort and visit day or time using descriptive statistics.
structure (smiles),measurement,value
Cc1cccc(-c2nn3c(c2-c2ccc4ncnn4c2/C=C/C(N)=O)CCC3)n1 [GFH018],"TEAE: ALT increased, any grade (Table S3)",0 n (%)
same,"TEAE: ALT increased, maximal CTCAE grade G1",0 n (%)
same,"TEAE: ALT increased, maximal CTCAE grade G2",0 n (%)
same,"TEAE: ALT increased, maximal CTCAE grade G3",0 n (%)
same,"TEAE: ALT increased, maximal CTCAE grade G4",0 n (%)
same,"TEAE: ALT increased, maximal CTCAE grade G5",0 n (%)
same,TEAE: AST increased,1 (16.7%) n (%)
same,"TEAE: AST increased, any grade (Table S3)",1 (16.7%) n (%)
same,"TEAE: AST increased, maximal CTCAE grade G1",1 (16.7%) n (%)
same,"TEAE: AST increased, maximal CTCAE grade G2",0 n (%)
same,"TEAE: AST increased, maximal CTCAE grade G3",0 n (%)
same,"TEAE: AST increased, maximal CTCAE grade G4",0 n (%)
same,"TEAE: AST increased, maximal CTCAE grade G5",0 n (%)
same,TEAE: Abdominal distention,1 (16.7%) n (%)
same,TEAE: Abdominal pain,2 (33.3%) n (%)
same,TEAE: Anemia,2 (33.3%) n (%)
same,TEAE: Asthenia,1 (16.7%) n (%)
same,TEAE: Bilirubin conjugated increased,1 (16.7%) n (%)
same,TEAE: Blood albumin decreased,1 (16.7%) n (%)
same,TEAE: Blood bilirubin increased,0 n (%)
same,TEAE: C-reactive protein increased,0 n (%)
same,"TEAE: C-reactive protein increased, any grade (Table S3)",0 n (%)
same,"TEAE: C-reactive protein increased, maximal CTCAE grade G1",0 n (%)
same,"TEAE: C-reactive protein increased, maximal CTCAE grade G2",0 n (%)
same,"TEAE: C-reactive protein increased, maximal CTCAE grade G3",0 n (%)
same,"TEAE: C-reactive protein increased, maximal CTCAE grade G4",0 n (%)
same,"TEAE: C-reactive protein increased, maximal CTCAE grade G5",0 n (%)
same,TEAE: Constipation,0 n (%)
same,TEAE: Decreased appetite,2 (33.3%) n (%)
same,"TEAE: Decreased appetite, any grade (Table S3)",2 (33.3%) n (%)
same,"TEAE: Decreased appetite, maximal CTCAE grade G1",1 (16.7%) n (%)
same,"TEAE: Decreased appetite, maximal CTCAE grade G2",1 (16.7%) n (%)
same,"TEAE: Decreased appetite, maximal CTCAE grade G3",0 n (%)
same,"TEAE: Decreased appetite, maximal CTCAE grade G4",0 n (%)
same,"TEAE: Decreased appetite, maximal CTCAE grade G5",0 n (%)
same,TEAE: GGT increased,0 n (%)
same,"TEAE: GGT increased, any grade (Table S3)",0 n (%)
same,"TEAE: GGT increased, maximal CTCAE grade G1",0 n (%)
same,"TEAE: GGT increased, maximal CTCAE grade G2",0 n (%)
same,"TEAE: GGT increased, maximal CTCAE grade G3",0 n (%)
same,"TEAE: GGT increased, maximal CTCAE grade G4",0 n (%)
same,"TEAE: GGT increased, maximal CTCAE grade G5",0 n (%)
same,TEAE: Hypoalbuminemia,1 (16.7%) n (%)
same,TEAE: LDH increased,0 n (%)
same,"TEAE: LDH increased, any grade (Table S3)",0 n (%)
same,"TEAE: LDH increased, maximal CTCAE grade G1",0 n (%)
same,"TEAE: LDH increased, maximal CTCAE grade G2",0 n (%)
same,"TEAE: LDH increased, maximal CTCAE grade G3",0 n (%)
same,"TEAE: LDH increased, maximal CTCAE grade G4",0 n (%)
same,"TEAE: LDH increased, maximal CTCAE grade G5",0 n (%)
same,TEAE: Lymphocyte count decreased,3 (50.0%) n (%)
same,TEAE: Platelet count decreased,1 (16.7%) n (%)
same,TEAE: Proteinuria,1 (16.7%) n (%)
same,TEAE: Sinus tachycardia,2 (33.3%) n (%)
same,TEAE: Urine protein present,1 (16.7%) n (%)
same,TEAE: White blood cell count decreased,1 (16.7%) n (%)
same,TEAE: White blood cells urine positive,0 n (%)
same,"TEAE: White blood cells urine positive, any grade (Table S3)",0 n (%)
same,"TEAE: White blood cells urine positive, maximal CTCAE grade G1",0 n (%)
same,"TEAE: White blood cells urine positive, maximal CTCAE grade G2",0 n (%)
same,"TEAE: White blood cells urine positive, maximal CTCAE grade G3",0 n (%)
same,"TEAE: White blood cells urine positive, maximal CTCAE grade G4",0 n (%)
same,"TEAE: White blood cells urine positive, maximal CTCAE grade G5",0 n (%)
same,TRAE: ALP increased,1 (16.7%) n (%)
same,TRAE: ALT increased,0 n (%)
same,TRAE: AST increased,0 n (%)
same,TRAE: Anemia,1 (16.7%) n (%)
same,TRAE: GGT increased,0 n (%)
